Reference: US8912207B2, “2-aldoximino-5-fluoropyrimidine derivatives” (Dow AgroSciences, LLP., priority 2009, dated 2014)
Read-outs that look alike come from different tables or passages of the source.

Columns and labels:
[1] = test system: Mycosphaerella graminicola; anamorph: Septoria tritici; Bayer code SEPTTR; assay: Fungicidal activity: leaf blotch of wheat, one-day protectant (1DP) and three-day curative (3DC) tests on wheat plants; type: in vivo, Septoria tritici on wheat plants (variety Yuma); settings: Zymoseptoria tritici, rating of % disease control vs untreated inoculated plants
Experimental: Evaluation of Fungicidal Activity: Leaf Blotch of Wheat (Mycosphaerella graminicola; anamorph: Septoria tritici; Bayer code […]) Wheat plants (variety Yuma) were grown from seed in a greenhouse in 50% mineral soil/50% soil-less Metro mix until the first leaf was fully emerged, with 7-10 seedlings per pot. These plants were inoculated with an aqueous spore suspension of Septoria tritici either prior to or after fungicide treatments. After inoculation the plants were kept in 100% relative humidity (one day in a dark dew chamber followed by two to three days in a lighted dew chamber) to permit spores to germinate and infect the leaf. The plants were then transferred to a greenhouse for disease to develop. The following table presents the activity of typical compounds of the present disclosure when evaluated in these experiments. The effectiveness of the test compounds in controlling disease was determined by assessing the severity of disease on treated plants, then converting the severity to percent control based on the level of disease on untreated, inoculated plants. In each case of Table III the rating scale is as follows: […]

[2] = 24 h, one-day protectant, read-out: SEPTTR 25 ppm 1DP
[3] = 24 h, one-day protectant, read-out: SEPTTR 100 ppm 1DP
[4] = 72 h, three-day curative, read-out: SEPTTR 25 ppm 3DC
[5] = 72 h, three-day curative, read-out: SEPTTR 100 ppm 3DC

| Structure (SMILES) | pest or weed control at 25 ppm [1, 2] | pest or weed control at 100 ppm [1, 3] | pest or weed control at 25 ppm [1, 4] | pest or weed control at 100 ppm [1, 5] | melting point |
| --- | --- | --- | --- | --- | --- |
| COc1ccc(C=NOc2ncc(F)c(NCc3ccc(Cl)cc3)n2)cc1 [Compound 28] | 0 to 25% | 26 to 50% | 0 to 25% | 0 to 25% | 141 to 142 °C |
| CC=NOc1ncc(F)c(NCc2ccc(Cl)cc2)n1 [Compound 29] | 0 to 25% | 26 to 50% | 0 to 25% | 51 to 75% | 116 to 117 °C |
| CC(C)C=NOc1ncc(F)c(NCc2ccc(Cl)cc2)n1 [Compound 30] | 0 to 25% | 26 to 50% | 0 to 25% | 26 to 50% | 200 to 205 °C |
| CC=NOc1ncc(F)c(NCc2ccc(OC)cc2)n1 [Compound 34] | 0 to 25% | 26 to 50% | 26 to 50% | 76 to 100% | 79 to 82 °C |
| CN(Cc1ccccc1)c1nc(ON=Cc2ccc(Cl)cc2)ncc1F [Compound 37] | 0 to 25% | 51 to 75% | 26 to 50% | 76 to 100% | 78 to 81 °C |
| COc1ccc(C=NOc2ncc(F)c(N(C)Cc3ccccc3)n2)cc1 [Compound 38] | 0 to 25% | 0 to 25% | 26 to 50% | 51 to 75% | 100 to 103 °C |
| CC(C)C=NOc1ncc(F)c(N(C)Cc2ccccc2)n1 [Compound 40] | 0 to 25% | 0 to 25% | 0 to 25% | 51 to 75% | 176 to 179 °C |
| CN(Cc1ccc(Cl)cc1)c1nc(ON=Cc2ccc(Cl)cc2)ncc1F [Compound 42] | 0 to 25% | 26 to 50% | 0 to 25% | 0 to 25% | 115 to 116 °C |
| CC(C)C=NOc1ncc(F)c(N(C)Cc2ccc(Cl)cc2)n1 [Compound 45] | 0 to 25% | 0 to 25% | 26 to 50% | 0 to 25% | 224 to 228 °C (dec.) |
| COc1ccc(CN(C)c2nc(ON=Cc3ccc(Cl)cc3)ncc2F)cc1 [Compound 47] | 26 to 50% | 26 to 50% | 26 to 50% | 51 to 75% | 79 to 83 °C |
| COc1ccc(C=NOc2ncc(F)c(N(C)Cc3ccc(OC)cc3)n2)cc1 [Compound 48] | 0 to 25% | 0 to 25% | 26 to 50% | 51 to 75% | 46 to 50 °C |
| COc1ccc(CN(C)c2nc(ON=CC(C)C)ncc2F)cc1 [Compound 50] | 0 to 25% | 0 to 25% | 26 to 50% | 26 to 50% | 110 to 112 °C |
| CN(C)c1nc(ON=Cc2ccccc2)ncc1F [Compound 51] | 0 to 25% | 0 to 25% | 0 to 25% | 51 to 75% | 75 to 76 °C |
| CN(C)c1nc(ON=Cc2ccc(Cl)cc2)ncc1F [Compound 52] | 0 to 25% | 0 to 25% | 0 to 25% | 26 to 50% | 144 to 146 °C |
| COc1ccc(C=NOc2ncc(F)c(N(C)C)n2)cc1 [Compound 53] | 0 to 25% | 0 to 25% | 0 to 25% | 0 to 25% | 106 to 107 °C |
| CC=NOc1ncc(F)c(N(C)C)n1 [Compound 54] | 0 to 25% | 0 to 25% | 0 to 25% | 0 to 25% | 122 to 124 °C |
| CC(C)C=NOc1ncc(F)c(N(C)C)n1 [Compound 55] | 0 to 25% | 0 to 25% | 0 to 25% | 0 to 25% | 90 to 92 °C |
